One data set concerns the target NC (Human immunodeficiency virus type 1 group M subtype B, UniProt P12493). As to conditions: cited from earlier work.
Data set [1] is described as follows: H/O conformational equilibrium of the C3 switch by fluorescence. The data set is classed as physicochemical. As to conditions: no protein. The source says:
Such “molecular beacons” operate on the principle of FRET.
It is appropriate to examine the two extreme states in FIG. 11 (sequences M1 and M2 in Table 2). This allows evaluation of the position of the K1 equilibrium shift upon changing the sequence. Simply put, the luminescence of pure H and O are known, so their populations in a mixed system are just linear functions of the measured luminescence.

For data set [2], the target named is T1, NCp7 (Human immunodeficiency virus type 1 group M subtype B, UniProt P12493). As to conditions: read-out: Kd′, single binding constant fit of FRET titration; Nt≅10 nM; emission at 517 nm.
Method: FRET-monitored titration of the C3 (SEQ ID NO: 7) (Nt≅10 nM). [NCp7] increases left to right, expressed as the ratio Pt/Nt. The emission at 517 nm is reported after subtracting that of the RNase treated sample. […] Uncertainty in Nt limits the precision of this determination.
A fluorophore is placed at the 5′-end of the chain (*), and a quencher at the location marked Q. The distance between fluorophore and quencher is much larger in H than in O, so H has much stronger fluorescence.
Data set [3] addresses T1, NCp7. As to conditions: 10 nM concentration of the switch.

Consider c(F-C-dW-R-C-K), for which, at NC, the “competition with NC for in vitro recognition of its RNA, DNA and protein targets” value is recorded as “competes with NC”.
As to “C3: unimolecular bistable RNA/DNA switch, SEQ ID NO: 7, with FAM fluorophore and Dabsyl quencher (GCTATCCACCGATAGCTCCAACACGCUAGCGGUGGCUAGC; RNA/DNA chimera, FAM fluorophore and Dabsyl quencher, positions not given here)”, in data set [1], the “K1 = [O]/[H]” value came to 0.08. Moreover, the Kd with NCp7 [2] was 500 nM.

B1: M3: tethered duplex of all-DNA chain SEQ ID NO: 3 and DNA/RNA chimeric chain SEQ ID NO: 6 (nucleic acid)
chain 1: GCTATCCACCGATAGCTCACAGCACGACTCAGATGG
chain 2: CCATCTGAGTCGTGCACGCUAGCGGUGGCUAGC
modifications: chain 1: DNA, backbone not given here; chain 2: chemistry not given here; strands tethered, second strand DNA/RNA chimera
In the case of B1, the “time of equilibration with NCp7” value with NCp7 [3] is recorded as “within a minute”.

The values above are taken from patent US8080379B2, “Branched and multi-chain nucleic acid switches for sensing and screening” (Syracuse University, priority 2004, dated 2011).
